One test concerns the target T1, HDAC7 (Homo sapiens, UniProt Q8WUI4).
T1 sequence (Q8WUI4 1-952): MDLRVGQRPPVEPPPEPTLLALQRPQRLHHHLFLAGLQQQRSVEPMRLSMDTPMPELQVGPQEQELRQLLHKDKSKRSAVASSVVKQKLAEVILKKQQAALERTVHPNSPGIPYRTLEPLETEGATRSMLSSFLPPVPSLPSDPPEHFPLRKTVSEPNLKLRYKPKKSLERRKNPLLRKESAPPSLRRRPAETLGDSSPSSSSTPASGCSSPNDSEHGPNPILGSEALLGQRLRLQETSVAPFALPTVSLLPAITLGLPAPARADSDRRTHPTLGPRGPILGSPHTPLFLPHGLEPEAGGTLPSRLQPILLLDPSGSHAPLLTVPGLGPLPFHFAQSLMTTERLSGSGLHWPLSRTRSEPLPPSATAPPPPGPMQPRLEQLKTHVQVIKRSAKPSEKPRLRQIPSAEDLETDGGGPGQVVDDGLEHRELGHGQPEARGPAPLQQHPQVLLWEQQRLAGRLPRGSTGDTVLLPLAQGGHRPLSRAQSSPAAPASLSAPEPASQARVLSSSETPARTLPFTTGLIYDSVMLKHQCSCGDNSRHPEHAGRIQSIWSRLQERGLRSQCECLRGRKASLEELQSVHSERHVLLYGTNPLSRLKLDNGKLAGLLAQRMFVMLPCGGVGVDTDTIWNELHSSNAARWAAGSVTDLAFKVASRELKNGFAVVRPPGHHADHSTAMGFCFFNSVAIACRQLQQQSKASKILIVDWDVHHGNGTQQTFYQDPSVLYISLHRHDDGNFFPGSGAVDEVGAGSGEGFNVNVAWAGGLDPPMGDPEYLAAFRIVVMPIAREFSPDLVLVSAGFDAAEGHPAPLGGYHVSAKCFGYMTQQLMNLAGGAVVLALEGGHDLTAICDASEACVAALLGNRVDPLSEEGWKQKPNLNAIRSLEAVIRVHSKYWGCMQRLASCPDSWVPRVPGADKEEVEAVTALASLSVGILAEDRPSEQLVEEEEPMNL
The test can be described thus: HDAC biochemical activity measurement (fluorescent substrate deacetylation).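 Further: fluorogenic deacetylation assay using acetyl-lysine substrate at 20 µM, enzyme and compound incubated 30 min at 37 °C, then developer added, fluorescence read at 360/460 nm.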 The conditions noted are these: HDAC7; 37° C. 30 minutes.

Test [1] deals with lncap (prostate cancer cells). The test is described as follows: MTT cancer cell growth inhibition. The test is classed as cell-based. Conditions: Homo sapiens, LNCaP, 72 h, MTT, 72 hours incubation, read-out: GI50 lnca. The method in brief: (§1)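 Tumour cells in 10% FBS-supplemented DMEM or RPMI 1640 are plated at 1500 per well, dosed next day with compound (10^−5 through 10^−10 M, final) and kept 72 h. MTT is added for 4 h; dissolved formazan is measured at 570 nm and GI50 determined.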

For test [2], the system named is K562 (human leukemia cells). The test is described as follows: MTT cancer cell growth inhibition. The test is classed as cell-based. The conditions noted are these: Homo sapiens, K562, 72 h, MTT, 72 hours incubation, K562 cells; read-out: GI50 K562. An outline of the steps:
as §1

In test [3] the test system is PANC-1 (Pac-1, human pancreatic cancer cells). The test is described as follows: MTT cancer cell growth inhibition. The test is classed as cell-based. Conditions: Homo sapiens, PANC-1, 72 h, MTT, 72 hours incubation, read-out: GI50 PAN. The method in brief: as §1
The subject of test [4] is A549 (human lung cancer cells). The test is described as follows: MTT cancer cell growth inhibition. The test is classed as cell-based. The conditions noted are these: MTT, 72 hours incubation, read-out: GI50 A54. An outline of the steps: as §1
The subject of test [5] is H1975 (non-small cell lung adenocarcinoma). The test is described as follows: MTT cancer cell growth inhibition. Conditions: MTT, 72 hours incubation, H1975 cells, read-out: GI50 H1975. The test is classed as cell-based. The method in brief: as §1
In test [6] the test system is Hela (human cervical cancer cells). The test can be described thus: MTT cancer cell growth inhibition. The test is classed as cell-based. The conditions noted are these: MTT, 72 hours incubation, read-out: GI50 Hela. An outline of the steps:
as §1

The test system of test [7] is MOLT-4 (human acute lymphoblastic leukemia cells). The test can be described thus: MTT cancer cell growth inhibition. The test is classed as cell-based. The conditions noted are these: Homo sapiens, MOLT-4, 72 h, MTT, 72 hours incubation, read-out: GI50 Mol. An outline of the steps: as §1
The subject of test [8] is SGC-7901 (human gastric cancer cells). The test can be described thus: MTT cancer cell growth inhibition. The test is classed as cell-based. Conditions: Homo sapiens, SGC-7901, 72 h, MTT, 72 hours incubation, SGC-7901 cells; read-out: GI50 SGC-7901. An outline of the steps:
as §1

Test [9] relates to U937 (human leukemia cells). The test is described as follows: MTT cancer cell growth inhibition. The test is classed as cell-based. Conditions: MTT, 72 hours incubation, read-out: GI50 U93. An outline of the steps: as §1
Test [10] deals with Bel-7402 (human hepatoma cells). The test can be described thus: MTT cancer cell growth inhibition. The test is classed as cell-based. Conditions: MTT, 72 hours incubation, Bel-7402 cells, read-out: GI50 Bel-7402. The method in brief:
as §1

The subject of test [11] is KBM5-T315I (human chronic myelogenous leukemia). The test can be described thus: MTT cancer cell growth inhibition. The test is classed as cell-based. Conditions: MTT, 72 hours incubation, KBM5-T315I cells, read-out: GI50 KBM5-T315I. The method in brief: as §1
For test [12], the system named is Huh-7 (human hepatoma cells). The test can be described thus: MTT cancer cell growth inhibition. The test is classed as cell-based. The conditions noted are these: Homo sapiens, Huh-7, 72 h, MTT, 72 hours incubation, Huh-7 cells; read-out: GI50 Huh-7. The method in brief: as §1
The test system of test [13] is KBM-5 (human chronic myelogenous leukemia). The test is described as follows: MTT cancer cell growth inhibition. Conditions: Homo sapiens, KBM5, 72 h, MTT, 72 hours incubation, KBM-5 cells; read-out: GI50 KBM-5. The test is classed as cell-based. The method in brief: as §1
The subject of test [14] is DU145 (human prostate cancer cells). The test can be described thus: MTT cancer cell growth inhibition. The test is classed as cell-based. The conditions noted are these: Homo sapiens, DU-145, 72 h, MTT, 72 hours incubation, read-out: GI50 Du1. The method in brief:
as §1

Test [15] has as its system BGC-823 (human gastric cancer cells). The test can be described thus: MTT cancer cell growth inhibition. The test is classed as cell-based. Conditions: Homo sapiens, BGC-823, 72 h, MTT, 72 hours incubation, read-out: GI50 BG. An outline of the steps: as §1
Test [16] deals with HT1080 (human fibrosarcoma cells). The test can be described thus: MTT cancer cell growth inhibition. The test is classed as cell-based. Conditions: MTT, 72 hours incubation, read-out: GI50 HT1. The method in brief:
as §1

Test [17] has as its system HCC827 (human non-small cell lung cancer cells). The test can be described thus: MTT cancer cell growth inhibition. The test is classed as cell-based. The conditions noted are these: MTT, 72 hours incubation, HCC827 cells, read-out: GI50 HCC827. An outline of the steps: as §1
Test [18] deals with MDA-MB-231 (breast cancer cells). The test is described as follows: MTT cancer cell growth inhibition. Conditions: Homo sapiens, MDA-MB-231, 72 h, read-out: GI50 MDA-MB-231, MTT, 72 hours incubation, MDA-MB-231 cells. The test is classed as cell-based. An outline of the steps:
as §1

Test [19] deals with N-87 (human gastric cancer cells). The test can be described thus: MTT cancer cell growth inhibition. Conditions: Homo sapiens, 72 h, MTT, 72 hours incubation, N-87 cells; read-out: GI50 N-87. The test is classed as cell-based. The method in brief: as §1
Test [20] relates to MCF-7 (human breast cancer cells). The test is described as follows: MTT cancer cell growth inhibition. The test is classed as cell-based. Conditions: 72 hours incubation, read-out: GI50 MCF. The method in brief: as §1
Setting [21] is: Homo sapiens, A549, 72 h, A549 cells.
[22] abbreviates: Homo sapiens, U-937, 72 h, U937 cells.
The mark [23] stands for this setting: Homo sapiens, MCF7, 72 h, MCF-7 cells.

In general, GI50 refers to the concentration giving 50% growth inhibition.

Where two headings read alike, the source gives them in different places.

On to `C/C=C1\NC(=O)c2nc(ccc2SC)CNC(=O)C[C@@H](/C=C/CCSC(C)=O)OC(=O)[C@H](C)NC1=O` [Compound 183], for which, at HDAC7, the “IC50 HDAC7” value is given as “no activity”. Further, the GI50 in test [1] (lncap cells) amounted to 60 nM; in test [2] it was 25 nM; in test [3] (PANC-1 cells) it was 50 nM; in test [4] (setting [21]), 70 nM; in test [5] (Homo sapiens, NCI-H1975, 72 h), 41 nM; in [6] (Hela cells) it was 110 nM. Also, the GI50 in test [7] (MOLT-4 cells) was determined as 60 nM; in [8] it was 48 nM; in [9] (U937 cells), 20 nM; in test [10], 25 nM; in test [11] (Homo sapiens, 72 h) it was 65 nM; in test [12], 47 nM. The GI50 turned out to be 51 nM in [13]; 30 nM in test [14] (DU145 cells); 60 nM in test [15] (BGC-823 cells); 50 nM in test [16] (HT1080 cells); 46 nM in [17] (Homo sapiens, HCC827, 72 h); 49 nM in test [18]. For the same compound, the 50% growth inhibitory concentration (GI50) in [19] amounted to 37 nM; in test [20] (MCF-7 cells) it was 40 nM.
`C/C=C1\NC(=O)c2nc(ccc2SC)CNC(=O)C[C@@H](/C=C/CCSC(C)=O)OC(=O)[C@H](CCCCN)NC1=O` [Compound 192]: at HDAC7, the “IC50 HDAC7” value is on record as “no activity”. Further, the GI50 in test [1] (lncap cells) is 20 nM; in test [2], 23 nM; in test [3] (PANC-1 cells) it was 60 nM; in [4] (setting [21]), 90 nM; in test [5] (Homo sapiens, NCI-H1975, 72 h), 35 nM; in [6] (Homo sapiens, HeLa, 72 h, Hela cells), 290 nM. In addition, the GI50 in test [7] (MOLT-4 cells) was found to be 90 nM; in test [8] it was 99 nM; in [9] (setting [22]), 20 nM; in test [10] (Homo sapiens, Bel-7402, 72 h), 54 nM; in [11] (Homo sapiens, 72 h), 29 nM; in test [12] it was 71 nM. Moreover, the GI50 in [13] came out at 21 nM; in test [14] (DU145 cells), 80 nM; in [15] (BGC-823 cells), 70 nM; in test [16] (Homo sapiens, HT-1080, 72 h, HT1080 cells), 50 nM; in test [17] (Homo sapiens, HCC827, 72 h), 37 nM; in [18], 83 nM. Besides, the GI50 in test [19] came to 32 nM; in test [20] (setting [23]), 50 nM.
In the case of `C/C=C1\NC(=O)c2cc(F)cc(n2)CNC(=O)C[C@@H](/C=C/CCS)OC(=O)[C@H](Cc2cccc3ccccc23)NC1=O` [Compound 125], the “IC50 HDAC7” value against HDAC7 is reported as “no activity”. Also, the concentration for 50% growth inhibition (GI50) in test [1] was 110 nM; in test [2], 47 nM; in [3] it was 120 nM; in test [4] (Homo sapiens, A549, 72 h), 60 nM; in test [5] (Homo sapiens, NCI-H1975, 72 h) it was 36 nM; in [6] (Homo sapiens, HeLa, 72 h) it was 50 nM. For the same compound, the 50% growth inhibitory concentration (GI50) in test [7] was 110 nM; in test [8] it was 39 nM; in test [9] (Homo sapiens, U-937, 72 h), 50 nM; in test [10] (Homo sapiens, Bel-7402, 72 h), 57 nM; in test [11] (Homo sapiens, 72 h) it was 58 nM; in test [12] it was 25 nM. The GI50 in test [13] worked out at 64 nM; in test [14] it was 30 nM; in [15], 30 nM; in test [16] (Homo sapiens, HT-1080, 72 h) it was 40 nM; in test [17] (Homo sapiens, HCC827, 72 h), 29 nM; in [18], 75 nM. For the same compound, the GI50 worked out at 31 nM in test [19] and 60 nM in test [20] (Homo sapiens, MCF7, 72 h).
Regarding `C/C=C1\NC(=O)c2ccc(SC)c(n2)CNC(=O)C[C@@H](/C=C/CCSC(C)=O)OC(=O)[C@H](C)NC1=O` [Compound 185], the “IC50 HDAC7” value on HDAC7 is recorded as “no activity”. Further, the GI50 stood at 80 nM in test [1] (lncap cells); 36 nM in [2]; 30 nM in [3] (PANC-1 cells); 10 nM in test [4] (A549 cells); 12 nM in test [5]; 50 nM in test [6] (Hela cells). Also, the GI50 in [7] (MOLT-4 cells) is 50 nM; in test [8], 44 nM; in test [9] (setting [22]) it was 50 nM; in test [10], 91 nM; in [11] it was 13 nM; in [12], 71 nM. The GI50 in test [13] was determined as 28 nM; in [14] (DU145 cells), 30 nM; in test [15] (BGC-823 cells) it was 30 nM; in [16] (HT1080 cells), 50 nM; in test [17], 82 nM; in test [18] it was 71 nM. The GI50 in test [19] came out at 26 nM; in test [20] (setting [23]), 60 nM.

For the origin of these results see patent US10065990B2, “Cyclic peptide compound, and preparation method, pharmaceutical composition and use thereof” (HANGZHOU GUANYU BIO-MEDICAL CO., LTD, priority 2013, dated 2018).
